Common to all, as to assay type: in vivo
Experiment [1] concerns peach aphid (Myzus persicae). Description: Myzus test (leaf dip). The settings on record: concentration of active compound 0.1%, after one day, cabbage leaves dipped. On the procedure:
(§1) Solvent: 7 parts by weight of dimethylformamide
(§2) Emulsifier: 1 part by weight of alkylaryl polyglycol ether
(§3) To produce a suitable preparation of active compound, 1 part by weight of active compound is mixed with the stated amount of solvent and the stated amount of emulsifier, and the concentrate is diluted with water to the desired concentration.
Cabbage leaves (Brassica oleracea) which are heavily infested with the peach aphid (Myzus persicae) are treated by being dipped into the preparation of active compound of the desired concentration.
(§4) After the specified period of time, the destruction in % is determined. 100% means that all the aphids have been killed; 0% means that none of the aphids have been killed.

The test system of experiment [2] is black bean aphid (Aphis fabae). In words: Aphis test (systemic action). The note with it: concentration of active compound 0.02%, after four days, bean plants watered (systemic). As to the method: Aphis Test (Systemic Action)
as §1, §2, §3
Bean plants (Vicia faba) which are heavily infested with the black bean aphid (Aphis fabae) are each watered with 20 ml of preparation of active compound of the desired concentration in such a way that the preparation of active compound penetrates into the soil without wetting the shoot. The active compound is taken up by the roots and passes to the shoot.
as §4

Experiment [3] concerns Phaedon cochleariae larvae. In words: Critical concentration test/root-systemic action, Phaedon. The settings on record: 2.5 ppm active compound in soil, leaves infested after 7 days, evaluated after a further 2 days. On the procedure: Critical Concentration Test/Root-Systemic Action.
Test insect: Phaedon cochleariae larvae
(§5) Solvent: 3 parts by weight of acetone
as §2
(§6) To produce a suitable preparation of active compound, 1 part by weight of active compound is mixed with the stated amount of solvent, the stated amount of emulsifier is added and the concentrate is diluted with water to the desired concentration.
(§7) The preparation of active compound is intimately mixed with soil. The concentration of the active compound in the preparation is of practically no importance, only the amount by weight of active compound per unit volume of soil, which is given in ppm (=mg/l), being decisive. The treated soil is transferred into pots and these are planted with cabbage (Brassica oleracea). The active compound can in this way be taken up from the soil by the roots of the plants and be transferred into the leaves.
(§8) After a further 2 days, the evaluation is made by counting or estimating the dead animals. The root-systemic action of the active compound is deduced from the mortality figures. It is 100% if all test animals have been killed and 0% if just as many test insects are still alive as in the case of the untreated control.

Experiment [4] deals with Myzus persicae. Description: Critical concentration test/root-systemic action, Myzus. The settings on record: 20 ppm active compound in soil, leaves infested after 7 days, evaluated after a further 2 days. As to the method:
Critical Concentration Test/Root-Systemic Action
Test insect: Myzus persicae
as §5, §2, §6, §7, §8

The subject of experiment [5] is Lucilia cuprina larvae. In words: Blowfly larvae test. The settings on record: after 24 hours. On the procedure:
Test animals: Lucilia cuprina larvae
35 parts by weight of ethylene glcyol monomethyl ether
(§9) 35 parts by weight of nonylphenol polyglycol ether
To produce a suitable preparation of active compound, three parts by weight of active compound are mixed with seven parts by weight of the abovementioned mixture and the emulsion concentrate thus obtained is diluted with water to the particular desired concentration.
About 20 Lucilia cuprina res. larvae are introduced into a test tube which contains approx. 1 cm^3 of horse meat and 0.5 ml of the preparation of active compound. After 24 hours, the effectiveness of the preparation of active compound is determined. 100% means that all blowfly larvae have been killed; 0% means that none of the blowfly larvae have been killed.

Experiment [6] deals with Musca domestica, strain WHO (N). Description: Fly test. The settings on record: concentration of active compound 1 ppm, after 6 hours, filter paper. As to the method: Test animals: Musca domestica, strain WHO (N)
(§10) 35 parts by weight of ethylene glycol monomethyl ether
as §9
(§11) To produce a suitable formulation, three parts by weight of active compound are mixed with seven parts of the abovementioned solvent/emulsifier mixture, and the emulsion concentrate thus obtained is diluted with water to the particular desired concentration.
2 ml of this preparation of active compound are pipetted onto filter paper discs (φ9.5 cm) located in Petri dishes of a suitable size. After the filter paper discs have dried, 25 test animals are introduced into the Petri dish, which is covered.
After 6 hours, the effectiveness of the preparation of active compound is determined. The effectiveness is expressed in %. 100% means that all flies have been killed; 0% means that none of the flies have been killed.

The test system of experiment [7] is Blattella germanica or Periplaneta americana. Description: Cockroach test. The settings on record: after 6 hours, filter paper. On the procedure: Test animals: Blattella germanica or Periplaneta americana
as §10, §9, §11
2 ml of this preparation of active compound are pipetted onto filter paper discs (φ9.5 cm) located in Petri dishes of a suitable size. After the filter paper discs have dried, 5 test animals (Blattella germanica or Periplaneta americana) are introduced into the Petri dish, which is covered.
After 6 hours, the effectiveness of the preparation of active compound is determined. The effectiveness is expressed in %. 100% means that all cockroaches have been killed; 0% means that none of the cockroaches have been killed.

Experiment [8] has as its system All stages (eggs, larvae, pupae and adults) of Ctenocephalides felis. Description: Flea in-vitro test (all development stages). The settings on record: active compound concentration 10% in blood meal. On the procedure:
Flea In-Vitro Test (All Development Stages)
Test subject: All stages (eggs, larvae, pupae and adults) of Ctenocephalides felis.
Blood meal is dried overnight in a shallow dish at approximately 70° C. and then screened using a mesh size of 0.63 mm.
1.8 g portions of this prepared blood meal are transferred into plastic Petri dishes of φ9.8 cm.
Using an Eppendorf pipette, 0.2 ml of substance are placed on the 1.8 g of blood meal (dilution factor 1:10).
That is to say, at a use concentration of 1 ppm, the aqueous solution must have a concentration of 10 ppm. The solution is distributed dropwise over the entire surface of-the blood meal.
These prepared dishes are allowed to dry overnight. Using a suitable device, the substance, which is now in the form of dried lumps of blood meal, is crushed and distributed uniformly in the Petri dish by rotating movements. A spatula-full of sieved flea eggs (which are obtained from artificially infected cats) is now added to these prepared test dishes. The dish is sealed with Parafilm and shaken vigorously.
Incubation is effected at 25° C. and the relative atmospheric humidity of 85%. At certain intervals, the dishes are examined for development stages of fleas.
Test criteria: The criteria used for the in-vitro activity of a substance is the inhibition of flea development or a standstill of the development before the adult stage is reached. […]

Each structure is given as a SMILES string. A value given as a limit tells only on which side of the number the result lay.

As for `N#Cc1nn(-c2c(Cl)cc(C(F)(F)F)cc2Cl)c(N)c1[S+]([O-])C(F)(F)F` (stereo not drawn) [prior art], the degree of destruction in experiment [1] is 0%; in experiment [2] it was 0%; in experiment [3] it was 0%; in experiment [4], 0%; in experiment [7] (concentration of active compound 10 ppm), less than 100%. The same compound yielded a destructive activity in experiment [5] (concentration of active compound 1000 ppm) of 100%. Further, the figures for the destruction in experiment [6] and in experiment [8] were less than 100% and 0%, respectively.
For `Cc1nn(-c2c(Cl)cc(C(F)(F)F)cc2Cl)c(N)c1SC(C)(F)F` [Example 1, 5-amino-3-methyl-4-(1,1-difluoroethylthio)-1-(2,6-dichloro-4-trifluoromethylphenyl)-pyrazole], in experiment [3], the degree of destruction was 100%. The same compound yielded a destruction in experiment [7] (concentration of active compound >10 ppm) of 100%.
On to `CC(F)(F)Sc1cnn(-c2c(Cl)cc(C(F)(F)F)cc2NN)c1N` [Example 33, 5-amino-4-(1,1-difluoroethylthio)-1-(2-chloro-4-trifluoromethyl-6-hydrazinophenyl)-pyrazole], for which, in experiment [3], the degree of destruction was determined as 100%. The compound further had a destructive activity in experiment [5] (concentration of active compound ≧300 ppm) of 100%.

Values taken from patent publication USRE37495E1, “Substituted 1-arylpyrazoles” (Bayer Aktiengesellschaft, priority 1993, dated 2002).
